According to ChEMBL document CHEMBL1201862, “PubChem BioAssay data set” (2004):
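Tested at 5 concentrations; 48 h exposure; 96-well plates; endpoints linearly interpolated, else capped at highest concentration. At the GI50, growth is halved.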 Calls of active or inactive are those of the source. Cut-off read from the data, not from the text of the source: active = GI50 up to about 1.1 µM and inactive = higher.

Experiments:
Assay in all cases: growth of human tumour cells (NCI), 48 h
A498 = test system: A498
ACHN = test system: ACHN
EKVX = test system: EKVX
HCC 2998 = test system: HCC 2998
HCT-15 = test system: HCT-15
MOLT-4 = test system: MOLT-4
Malme-3M = test system: Malme-3M
NCI-H23 = test system: NCI-H23
NCI-H460 = test system: NCI-H460
NCI-H522 = test system: NCI-H522
OVCAR-5 = test system: OVCAR-5
SN12C = test system: SN12C
SNB-19 = test system: SNB-19
SR = test system: SR
SW-620 = test system: SW-620
U-251 = test system: U-251
UACC-257 = test system: UACC-257
UACC-62 = test system: UACC-62
SK-MEL-2 = test system: SK-MEL-2

SMILES | GI50 (A498) | GI50 (ACHN) | GI50 (EKVX) | GI50 (HCC 2998) | GI50 (HCT-15) [µM] | GI50 (MOLT-4) | GI50 (Malme-3M) | GI50 (NCI-H23) | GI50 (NCI-H460) | GI50 (NCI-H522) | GI50 (OVCAR-5) | GI50 (SN12C) | GI50 (SNB-19) | GI50 (SR) | GI50 (SW-620) | GI50 (U-251) | GI50 (UACC-257) | GI50 (UACC-62) | GI50 (SK-MEL-2)
NC(Cc1ccc(OCc2ccccc2)cn1)C(=O)O (stereo unspecified) | > 100 µM (inactive) | > 100 µM (inactive) | > 100 µM (inactive) | > 100 µM (inactive) | > 100 | > 100 µM (inactive) | > 100 µM (inactive) | > 100 µM (inactive) | > 100 µM (inactive) | > 100 µM (inactive) | > 100 µM (inactive) | > 100 µM (inactive) | > 100 µM (inactive) | > 100 µM (inactive) | > 100 µM (inactive) | > 100 µM (inactive) | > 100 µM (inactive) |  | 
Cn1nc(-c2ccccc2)c2c(/C=C/c3ccc(F)cc3)onc2c1=O |  | 24.1 µM (inactive) | > 100 µM (inactive) |  | 39.5 | > 100 µM (inactive) |  | 19 µM (inactive) | > 100 µM (inactive) | 17.5 µM (inactive) |  | 88.1 µM (inactive) |  |  | > 100 µM (inactive) | 64 µM (inactive) |  | > 100 µM (inactive) | 
COC(=O)[C@@H]1C(=O)O[C@@H](c2ccc3c(c2)OCO3)[C@@H]1C(=O)OC.COC(=O)[C@H]1C(=O)O[C@@H](c2ccc3c(c2)OCO3)[C@@H]1C(=O)OC | > 100 µM (inactive) | > 100 µM (inactive) | > 100 µM (inactive) | > 100 µM (inactive) | > 100 | > 100 µM (inactive) | > 100 µM (inactive) | > 100 µM (inactive) | > 100 µM (inactive) | > 100 µM (inactive) | > 100 µM (inactive) | > 100 µM (inactive) | > 100 µM (inactive) | > 100 µM (inactive) | > 100 µM (inactive) | > 100 µM (inactive) | > 100 µM (inactive) | > 100 µM (inactive) | 
COc1ccc(C2CCc3cc4c(cc3/C2=N/OC(C)=O)OCO4)cc1OC (stereo unspecified) |  |  | 29.2 µM (inactive) |  | 30.3 | 15.8 µM (inactive) | 20.1 µM (inactive) | 10.4 µM (inactive) |  | 12 µM (inactive) | 32.9 µM (inactive) | 26.9 µM (inactive) | 39.3 µM (inactive) |  | 27.4 µM (inactive) | 23.8 µM (inactive) | 18.4 µM (inactive) | 18.2 µM (inactive) | 27.8 µM (inactive)
NC(=O)Nc1c([N+](=O)[O-])cc(C(F)(F)F)cc1[N+](=O)[O-] | > 100 µM (inactive) | > 100 µM (inactive) | > 100 µM (inactive) |  | 65.8 | > 100 µM (inactive) |  | 43.8 µM (inactive) | 48.1 µM (inactive) | 32.6 µM (inactive) | > 100 µM (inactive) | > 100 µM (inactive) | > 100 µM (inactive) | > 100 µM (inactive) | 51.2 µM (inactive) | > 100 µM (inactive) | 72.3 µM (inactive) | 19.4 µM (inactive) | > 100 µM (inactive)
CN(C)c1ccc(/C=c2\sc3nc4ccccc4n3c2=O)cc1 | > 100 µM (inactive) | > 100 µM (inactive) | > 100 µM (inactive) | > 100 µM (inactive) | > 100 |  | > 100 µM (inactive) | > 100 µM (inactive) | > 100 µM (inactive) | > 100 µM (inactive) | > 100 µM (inactive) | > 100 µM (inactive) | > 100 µM (inactive) |  | > 100 µM (inactive) | > 100 µM (inactive) | > 100 µM (inactive) | > 100 µM (inactive) | > 100 µM (inactive)
Cc1cc(Cl)cc2c1NC(=O)C2=O.O=C(c1ccccc1)C(F)(F)F | > 100 µM (inactive) | 75.7 µM (inactive) | 49 µM (inactive) | > 100 µM (inactive) | 64.4 | 20.1 µM (inactive) | 45.6 µM (inactive) | > 100 µM (inactive) | 70.5 µM (inactive) | 24.7 µM (inactive) | > 100 µM (inactive) | 54 µM (inactive) | 72.4 µM (inactive) |  | 72.8 µM (inactive) | 85.9 µM (inactive) | 27.5 µM (inactive) | 19.9 µM (inactive) | 36 µM (inactive)
C=CCN(N=O)C(=O)ON1C(=O)CCC1=O | > 100 µM (inactive) | > 100 µM (inactive) | > 100 µM (inactive) | > 100 µM (inactive) | > 100 | > 100 µM (inactive) | > 100 µM (inactive) | > 100 µM (inactive) | > 100 µM (inactive) | 64.7 µM (inactive) | 0.0681 µM (active) | > 100 µM (inactive) | > 100 µM (inactive) |  | > 100 µM (inactive) | 17.7 µM (inactive) | > 100 µM (inactive) | > 100 µM (inactive) | > 100 µM (inactive)
Cc1c2ccncc2c(C)c2c1[nH]c1ccc(OCC(F)(F)F)cc12 |  | 1.55 µM (inactive) | 1.61 µM (inactive) |  | 1.05 | 0.824 µM (active) | 1.73 µM (inactive) | 1.71 µM (inactive) | 1.18 µM (inactive) | 1.65 µM (inactive) | 1.53 µM (inactive) | 1.37 µM (inactive) | 1.64 µM (inactive) | 0.828 µM (active) | 0.619 µM (active) | 1.6 µM (inactive) | 1.89 µM (inactive) |  | 1.58 µM (inactive)
